Assay results reported in ChEMBL document CHEMBL1133129, “A focused compound library of novel N-(7-indolyl)benzenesulfonamides for the discovery of potent cell cycle inhibitors” (Bioorg Med Chem Lett, 2000).
In brackets after ≈: the same amount, converted by molar mass. Activity calls are given as the source filed them. The rule behind the calls is not given here.

How the values were obtained:
P388 [1] = assay: Effect on the cell cycle progression using P388 cells at 4.0 ug/mL for 24 hr; G2/M arrest; assay type: functional, cell-based; conditions: Mus musculus
KB [2] = assay: In vitro antiproliferative activity measured against KB cancer cell line using MTT colorimetric assay; assay type: functional, cell-based; conditions: Homo sapiens
MC-38 [3] = assay: In vitro antiproliferative activity measured against colon 38 cancer cell line using MTT colorimetric assay; assay type: functional, cell-based; conditions: Mus musculus
P388 [4] = assay: In vitro antiproliferative activity measured against P388 cancer cell line using MTT colorimetric assay; assay type: functional, cell-based; conditions: Mus musculus
P388 [5] = assay: Effect on the cell cycle progression using P388 cells at 4.0 ug/mL for 24 hr; G2/M arrest & 4C-8C drug treated cells underwent an extra DNA replication without the completion of mitosis; assay type: functional, cell-based; conditions: Mus musculus
Tubulin (Bos taurus) [6] = target: T1, Tubulin (Bos taurus) (UniProt Q6B856+Q862L2+Q862F3); assay: Compound was tested against bovine brain tubulin polymerization; active; assay type: functional
P388 [7] = assay: Effect on the cell cycle progression using P388 cells at 4.0 ug/mL for 24 hr; No effect; assay type: functional, cell-based; conditions: Mus musculus
P388 [8] = assay: Effect on the cell cycle progression using P388 cells at 4.0 ug/mL for 24 hr; GI increase; assay type: functional, cell-based; conditions: Mus musculus
P388 [9] = assay: Concentration at which compound caused cellular accumulation in GI phase in P388 cells; assay type: functional, cell-based; conditions: Mus musculus
Bos taurus = species: Bos taurus; assay: Inhibitory activity against bovine microtubule assembly; assay type: functional
P388 [10] = assay: In vitro antiproliferative activity was measured against P388 cancer cell line using MTT colorimetric assay; conditions: Mus musculus
MC-38 [11] = assay: In vitro antiproliferative activity (4 ug/mL) was measured against colon 38 cancer cell line using MTT colorimetric assay; assay type: functional, cell-based; conditions: Mus musculus
KB [12] = assay: In vitro antiproliferative activity (4 ug/mL) was measured against KB cancer cell line using MTT colorimetric assay; assay type: functional, cell-based; conditions: Homo sapiens
P388 [13] = assay: Effect on the cell cycle progression using P388 cells at 4.0 ug/mL for 24 hr; G2/M increase; assay type: functional, cell-based; conditions: Mus musculus
Tubulin (Bos taurus) [14] = target: T1, Tubulin (Bos taurus); assay: Compound was tested against bovine brain tubulin polymerization; assay type: functional
P388 [15] = assay: Effect on the cell cycle progression using P388 cells at 4.0 ug/mL for 24 hr; Effect:G2/M arrest & 4C-8C drug treated cells underwent an extra DNA replication without the completion of mitosis; assay type: functional, cell-based; conditions: Mus musculus

Compound | IC50 (KB [2]) [µg/mL] | IC50 (MC-38 [3]) [µg/mL] | IC50 (P388 [4]) [µg/mL] | Cell cycle analysis (P388 [8]) | other results
COc1ccc(S(=O)(=O)Nc2cc(Cl)cc3cc[nH]c23)cc1 | 0.21 (≈ 0.624 µM) | 0.64 (≈ 1.9 µM) | 0.27 (≈ 0.802 µM) | – | Cell cycle analysis (P388 [1]): G2/M arrest
COc1ccc(S(=O)(=O)Nc2cccc3c(Cl)c[nH]c23)cc1 | – | – | – | – | Cell cycle analysis (P388 [5]): G2/M arrest; Activity (Tubulin (Bos taurus) [6]): Active
O=S(=O)(Nc1cccc2cc[nH]c12)c1ccc(Cl)cc1 | – | – | – | – | Cell cycle analysis (P388 [7]): inactive
Nc1ccc(S(=O)(=O)Nc2cccc3c(Cl)c[nH]c23)cc1 | – | – | – | GI increase | Concentration (P388 [9]): 4 µg/mL; Concentration (Bos taurus): > 33.3 µg/mL
O=[N+]([O-])c1ccc(S(=O)(=O)Nc2cccc3cc(O)[nH]c23)cc1 | > 100 | 62 (≈ 186 µM) | > 100 | – | Cell cycle analysis (P388 [7]): inactive
COc1ccc(S(=O)(=O)Nc2cccc3cc(Cl)[nH]c23)cc1 | – | – | – | – | Cell cycle analysis (P388 [1]): G2/M arrest; IC50 (P388 [10]): 0.11 µg/mL (≈ 0.327 µM); IC50 (MC-38 [11]): 0.17 µg/mL (≈ 0.505 µM); Activity (Tubulin (Bos taurus) [6]): Active; IC50 (KB [12]): 0.12 µg/mL (≈ 0.356 µM)
Cc1ccc(S(=O)(=O)Nc2cccc3cc(Cl)[nH]c23)cc1 | 0.11 (≈ 0.343 µM) | 0.18 (≈ 0.561 µM) | 0.14 (≈ 0.436 µM) | – | Cell cycle analysis (P388 [1]): G2/M arrest
O=[N+]([O-])c1ccc(S(=O)(=O)Nc2cccc3c(Cl)c[nH]c23)cc1 | 14 (≈ 39.8 µM) | 0.34 (≈ 0.967 µM) | 2.3 (≈ 6.54 µM) | GI increase | –
O=S(=O)(Nc1cccc2cc(Cl)[nH]c12)c1ccc(Cl)cc1 | – | – | – | – | IC50 (P388 [10]): 7.4 µg/mL (≈ 21.7 µM); IC50 (MC-38 [11]): 10 µg/mL (≈ 29.3 µM); Activity (Tubulin (Bos taurus) [6]): Active; Cell cycle analysis (P388 [13]): G2/M increase; IC50 (KB [12]): 4 µg/mL (≈ 11.7 µM)
Nc1ccc(S(=O)(=O)Nc2cccc3cc[nH]c23)cc1 | – | – | – | – | Cell cycle analysis (P388 [7]): inactive
N#Cc1ccc(S(=O)(=O)Nc2ccc(Cl)c3cc[nH]c23)cc1 | 15 (≈ 45.2 µM) | 0.22 (≈ 0.663 µM) | 1.8 (≈ 5.43 µM) | GI increase | –
N#Cc1ccc(S(=O)(=O)Nc2ccc(Cl)c3c(Cl)c[nH]c23)cc1 | 13 (≈ 35.5 µM) | 0.12 (≈ 0.328 µM) | 0.59 (≈ 1.61 µM) | GI increase | –
O=[N+]([O-])c1ccc(S(=O)(=O)Nc2cccc3cc(Cl)[nH]c23)cc1 | 18 (≈ 51.2 µM) | 19 (≈ 54 µM) | 21 (≈ 59.7 µM) | – | Cell cycle analysis (P388 [7]): inactive
Nc1ccc(S(=O)(=O)Nc2cccc3cc(Cl)[nH]c23)cc1 | 1.4 (≈ 4.35 µM) | 2.9 (≈ 9.01 µM) | 2.2 (≈ 6.84 µM) | – | Cell cycle analysis (P388 [5]): G2/M arrest
Nc1ccc(S(=O)(=O)Nc2ccc(Cl)c3c(Cl)c[nH]c23)cc1 | 14 (≈ 39.3 µM) | 0.1 (≈ 0.281 µM) | 0.49 (≈ 1.38 µM) | GI increase | –
O=[N+]([O-])c1ccc(S(=O)(=O)Nc2cccc3cc[nH]c23)cc1 | 15 (≈ 47.3 µM) | 7.2 (≈ 22.7 µM) | 8.2 (≈ 25.8 µM) | – | Cell cycle analysis (P388 [7]): inactive
O=[N+]([O-])c1ccc(S(=O)(=O)Nc2ccc(Cl)c3cc[nH]c23)cc1 | 9.1 (≈ 25.9 µM) | 0.67 (≈ 1.9 µM) | 3.3 (≈ 9.38 µM) | GI increase | –

Compound | IC50 (KB [2]) [µg/mL] | IC50 (MC-38 [3]) [µg/mL] | IC50 (P388 [4]) [µg/mL] | Cell cycle analysis (P388 [8]) | other results
COc1ccc(NS(=O)(=O)c2ccc(N)cc2)c2[nH]cc(Cl)c12 | 20 (≈ 56.8 µM) | 2.3 (≈ 6.54 µM) | 5.5 (≈ 15.6 µM) | – | Cell cycle analysis (P388 [7]): inactive
COc1ccc(S(=O)(=O)Nc2cccc3cc(O)[nH]c23)cc1 | 0.1 (≈ 0.314 µM) | 0.22 (≈ 0.691 µM) | 0.11 (≈ 0.346 µM) | – | Cell cycle analysis (P388 [1]): G2/M arrest
COc1ccc(S(=O)(=O)Nc2cccnc2Nc2ccc(O)cc2)cc1 | – | – | – | – | Activity (Tubulin (Bos taurus) [14]): Active; Cell cycle analysis (P388 [1]): G2/M arrest
Nc1ccc(S(=O)(=O)Nc2ccc(F)c3c(Cl)c[nH]c23)cc1 | 14 (≈ 41.2 µM) | 0.11 (≈ 0.324 µM) | 0.51 (≈ 1.5 µM) | GI increase | –
O=S(=O)(Nc1cccc2c(Cl)c[nH]c12)c1ccc(Cl)cc1 | 8.8 (≈ 25.8 µM) | 0.28 (≈ 0.821 µM) | 4.3 (≈ 12.6 µM) | GI increase | –
COc1ccc(S(=O)(=O)Nc2ccc(Cl)c3cc[nH]c23)cc1 | 0.92 (≈ 2.73 µM) | 0.65 (≈ 1.93 µM) | 1.1 (≈ 3.27 µM) | – | Cell cycle analysis (P388 [15]): Effect
O=[N+]([O-])c1ccc(S(=O)(=O)Nc2cc(Cl)cc3cc[nH]c23)cc1 | 12 (≈ 34.1 µM) | 13 (≈ 37 µM) | 13 (≈ 37 µM) | – | Cell cycle analysis (P388 [7]): inactive
N#Cc1ccc(S(=O)(=O)Nc2cccc3c(Cl)c[nH]c23)cc1 | – | – | – | GI increase | –
COc1ccc(S(=O)(=O)Nc2cccc3cc[nH]c23)cc1 | – | – | – | – | Cell cycle analysis (P388 [15]): Effect
O=S(=O)(Nc1ccc(Cl)c2cc[nH]c12)c1ccc(Cl)cc1 | 9.7 (≈ 28.4 µM) | 0.66 (≈ 1.93 µM) | 4.6 (≈ 13.5 µM) | GI increase | –
Nc1ccc(S(=O)(=O)Nc2ccc(-c3ccccc3)c3c(Cl)c[nH]c23)cc1 | 15 (≈ 37.7 µM) | 19 (≈ 47.8 µM) | 19 (≈ 47.8 µM) | – | Cell cycle analysis (P388 [7]): inactive
O=S(=O)(Nc1cc(Cl)cc2cc[nH]c12)c1ccc(Cl)cc1 | 9.1 (≈ 26.7 µM) | 8.5 (≈ 24.9 µM) | 9.9 (≈ 29 µM) | – | Cell cycle analysis (P388 [7]): inactive
O=S(=O)(Nc1cccc2cc(O)[nH]c12)c1ccc(Cl)cc1 | 1.1 (≈ 3.41 µM) | 4.5 (≈ 13.9 µM) | 2.2 (≈ 6.82 µM) | – | Cell cycle analysis (P388 [5]): G2/M arrest
Cc1ccc(S(=O)(=O)Nc2cccc3cc(O)[nH]c23)cc1 | – | – | – | – | Cell cycle analysis (P388 [1]): G2/M arrest; IC50 (P388 [10]): 0.14 µg/mL (≈ 0.463 µM); IC50 (MC-38 [11]): 0.17 µg/mL (≈ 0.562 µM); Activity (Tubulin (Bos taurus) [6]): Active; IC50 (KB [12]): 0.093 µg/mL (≈ 0.308 µM)
Nc1ccc(S(=O)(=O)Nc2ccc(Br)c3c(Cl)c[nH]c23)cc1 | 13 (≈ 32.4 µM) | 0.14 (≈ 0.349 µM) | 0.64 (≈ 1.6 µM) | GI increase | –
Cc1ccc(NS(=O)(=O)c2ccc(N)cc2)c2[nH]cc(Cl)c12 | 16 (≈ 47.6 µM) | 0.1 (≈ 0.298 µM) | 0.37 (≈ 1.1 µM) | GI increase | –
Nc1ccc(S(=O)(=O)Nc2cccc3cc(O)[nH]c23)cc1 | 0.86 (≈ 2.84 µM) | 1.8 (≈ 5.93 µM) | 1.2 (≈ 3.96 µM) | – | Cell cycle analysis (P388 [5]): G2/M arrest
